From patent US20130150399A1, “INHIBITORS OF THE UNFOLDED PROTEIN RESPONSE AND METHODS FOR THEIR USE” (The Board of Trustees of the Leland Stanford Junior …, priority 2006, published 2013) come the findings set out here.

In one assay the test system is phospho-JNK1. Description: Western blot of phospho-JNK1 under ER stress, HT1080 cells. It is filed as cell-based, human. The following applies: irestatins 2.5 μM, 2 hour preincubation; Tm 4 μg/ml, 1.5 hrs. The protocol: (§1) Cells (2×10^6) were cultured in 10-cm dishes, collected using a cell scraper at 4° C., and lysed by addition of 150 μl cell lysis buffer [50 mM Tris pH 7.4, 150 mM NaCl, 10% glycerol, 0.5% Triton X-100. 0.5% NP-40, 2 mM Na3VO4, 20 mM beta-glycerophosphate, 10 mM NaF, 1 mM DTT, 1 mM PMSF). Lysates were centrifuged for 5 min at 10,000×g, and proteins (˜40 μg) were resolved by SDS-PAGE followed by semi-dry transfer to nitrocellulose membranes. Membranes were blocked in TBS-5% milk supplemented with 0.1% Tween-20. The blots were then probed overnight with relevant antibodies, washed, and incubated for 2 hours with species-specific secondary antibodies conjugated to horseradish peroxidase. After washing in block solution, immunoreactive material was detected by enhanced chemiluminescence (SuperSignal West Dura Extended, Pierce, Inc., Rockville, Ill.).
HT1080 cells were exposed to DMSO vehicle (lane 1), irestatin 9389 (2.5 μM; lane 2) for 16 hours or Tm (5 μg/ml; lane 3) for 8 hours. Following treatments, cells were harvested, lysed, and analyzed by immunoblotting using anti-Grp78 antibody (top) or anti-actin (bottom) as a loading control. […] Cell lysates were analyzed by Western immunoblotting using anti-IRE1α (bottom) or anti-phospho-IRE1α antibodies (top). […] Lysates were analyzed by Western blot using antisera specific for phospho-JNK1 (top) or total JNK1 (bottom). […]
On the technique in general: Immunoblotting shows a protein as a band on a membrane.

For the next assay, the target named is T1, RNAse A (Bos taurus, UniProt P61823).
T1 construct: purchased Sigma
Description: RNAse A activity assay. The settings on record: >100-fold molar excess of irestatin 9389. It is filed as biochemical, bovine.

The next assay relates to ATF6. The assay is described as follows: Western blot of ATF6 cleavage, hypoxic HT1080 cells. It is filed as cell-based, human. The following applies: 2.5 μM. The protocol: as §1
A. Effect of irestatin 9389 on PERK and ATF6 pathways. […] Protein lysates were analyzed by Western blot analysis using antisera specific for ATF6 (top), CHOP/GADD153 (middle) or actin (bottom). […] Cells were harvested, counted, and allowed to grow under normal culture conditions for 11-12 days. […] D. Quantification of clonogenic survival assay. […] F. Quantification of TUNEL-positive cells. […] Cells were harvested at the indicated times and counted by hemocytometer. Values represent the mean calculated from triplicate experiments+/−SEM. […]

Structures are written as SMILES.

T1 sequence (P61823 27-150): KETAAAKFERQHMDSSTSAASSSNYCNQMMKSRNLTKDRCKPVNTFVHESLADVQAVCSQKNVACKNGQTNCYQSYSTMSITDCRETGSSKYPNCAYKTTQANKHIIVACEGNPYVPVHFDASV

As for `Cc1csc(NC(=O)CSc2nc3c(c(C(F)(F)F)c2C#N)CCC3)n1` [Compound 9389], the “phosphorylation of JNK1 during Tm-induced ER stress” value in the assay with phospho-JNK1 was “failed to block the phosphorylation of JNK1”. For the same molecule, at RNAse A, the “degradation of the XBP-1 3′ intronic loop by RNAse A” value is “failed to inhibit degradation”. Moreover, the “proteolytic cleavage of ATF6 into active 50 kDa form” value in the assay with ATF6 is recorded as “significantly increased the proteolytic cleavage of ATF6”.
